{"source": "patent US20200362305A1", "about": "“EFFICIENT INFECTION OF PRIMARY KER[…] HPV16” (Board of Supervisors of Louisiana State University and …, priority 2018, published 2020)", "tested_on": "HPV16", "assay": "HPV16 infection of primary keratinocytes by ECM-to-cell transfer, cells grown with or without Y-27632", "type": "cell-based, human", "details": "primary cells grown in the presence or absence of the Rho kinase inhibitor Y-27632", "protocol": "Human embryonic kidney 293TT and HeLa cells were obtained from John Schiller and Daniel DiMaio, respectively. They were cultured in DMEM supplemented with 10% FBS, non-essential amino acids, antibiotics, and L-Glutamax. Spontaneously immortalized human keratinocytes HaCaT cells were purchased from the American Type Culture Collection (ATCC) and grown in low glucose DMEM containing 5% FBS and antibiotics. Human foreskin keratinocytes (HFKs) were derived from neonatal human foreskin epithelia and maintained in E medium containing mouse epidermal growth factor (EGF) and mitomycin-treated mouse 3T3 J2 fibroblasts. Pooled primary epithelial keratinocytes were also purchased from the ATCC (PCS-200-010) and used in some experiments. In early experiments where indicated, the inventors maintained and infected primary keratinocytes in the presence of the Rho kinase inhibitor (ROCK) Y-27632, which was reported to increase their lifespan. However, the ROCK inhibitor was excluded prior and during experiments involving long term culturing of infected primary cells. Stable cell lines containing HPV16 episomes were created by co-transfection of pEGFP-N1-HPV16 containing the HPV16 genome (W12 strain) with an expression vector for Cre recombinase and a Neomycin resistance plasmid. […]"}
{"smiles": "C[C@@H](N)[C@H]1CC[C@H](C(=O)Nc2ccncc2)CC1", "note": "[Y-27632]", "values": [{"measurement": "infection efficiency", "value": "no significant difference"}]}
